Data reported in patent US11542316B2, “S-Arrestin peptides and therapeutic uses thereof” (APITOPE INTERNATIONAL NV, priority 2017, dated 2023).
Ends that are not written are not given here.

How the values were obtained:
[1] = system: T cell line with MGAR APC; experiment: Antigen Processing Independent Presentation System (APIPS) assay, fresh or fixed MGAR APC; assay type: cell-based, DR2 mice; conditions: DR2 T cell line, IFN-γ, 24 h
Protocol: FIG. 4: Identification of apitopes within HIP-9FL. DR2 mice were immunized with HIP-9FL-KKK and a T cell line was established. Ten days after immunization the LN and spleens were harvested and cultured with different concentrations of peptide (0.1-1-2.5 and 5 μg/ml); 2×10^6 cells/ml APCs+1×10^6 cells/ml CD4 T cells per well. At day 7 the cells were re-stimulated with the same concentrations of peptide. On day 21 an APIPS test was done using commercial APC (MGAR). After 24 h, antigen-induced T cell activation was measured by IFN-γ ELISA and shown as OD values. The graph represents the mean of duplicate measurements±SEM. LN, lymph nodes; APC, Antigen presenting cell; APIPS, Antigen Processing Independent Presentation System.
Antigen-specific clones or TCL were tested for their reactivity to the peptides, presented by fixed or not fixed (fresh) cells (VAVY or MGAR) (=APCs). 5×10^4 cells from the individual clones were cultured with 10 μg/ml peptide and 5×10^4 fixed or fresh APCs. In the case of TCL, 5×10^4 cells were cultured with 10 μg/ml and 25 μg/ml peptide and 2.5×10^4 fixed or fresh APCs. To fixate APCs, cells were incubated with 0.5% paraformaldehyde (Merck, Darmstadt, Germany) (pH7) for 5 min at room temperature (RT). The fixation reaction was stopped by adding 0.4M glycine (Sigma-Aldrich) and washing the cells in RPMI-10% FCS. Additionally, reactivity towards human SAg protein (QBiologicals, Eurofins Amatsigroup, Ghent, Belgium) was measured to identify cryptic epitopes. After 24 h or 48 h, antigen-induced IFN-γ or IL-2 production (respectively) was measured by ELISA (R&D Systems, Abingdon, UK).
DR3tg or DR2tg mice were immunised subcutaneously in the base of the tail with 50 μg peptide emulsified in CFA (peptide/CFA). Ten days after immunisation, draining lymph nodes (LN) and spleens were harvested. […] At day 7, TCL cells were counted and cultured with fresh APC, peptides and IL-2, all at the same concentrations as above. […]

[2] = target: T1, MHC II molecules present on dendritic cells (DC) (Homo sapiens, UniProt P01903+P01911); experiment: In vivo presentation experiment, DR2tg mice; conditions: 100 μg peptide s.c., CD11c+ cells harvested after 2 hours, co-culture 48 hours
T1 construct: from tissue; host or cells: CD11c+ dendritic cells from spleens of DR2tg mice (DRA*0101 and DRB1*1501 cDNAs under a mouse MHCII promoter, no mouse MHC class II)
T1 sequence (P01903 26-254): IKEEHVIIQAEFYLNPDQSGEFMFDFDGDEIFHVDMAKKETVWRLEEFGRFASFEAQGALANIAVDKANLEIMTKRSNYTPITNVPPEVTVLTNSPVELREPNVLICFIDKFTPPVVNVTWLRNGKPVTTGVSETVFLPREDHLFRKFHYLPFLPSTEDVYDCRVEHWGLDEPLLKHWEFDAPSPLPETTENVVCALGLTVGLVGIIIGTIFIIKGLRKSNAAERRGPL
T1 sequence (P01911 30-266): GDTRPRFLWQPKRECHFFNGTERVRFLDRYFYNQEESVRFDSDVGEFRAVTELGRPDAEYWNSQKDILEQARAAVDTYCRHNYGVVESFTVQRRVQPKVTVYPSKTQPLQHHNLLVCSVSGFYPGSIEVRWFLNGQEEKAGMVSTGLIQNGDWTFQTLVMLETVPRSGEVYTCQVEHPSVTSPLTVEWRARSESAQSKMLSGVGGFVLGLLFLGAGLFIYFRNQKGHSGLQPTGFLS
Source text: FIG. 14: In vivo presentation protocol. Mice are immunized with peptide/CFA and a T cell line is established. For this, ten days after immunization the LN and spleens are harvested and cultured with different concentrations of peptide; 2×10^6 cells/ml APC+1×10^6 cells/ml CD4^+ cells per well. At day 7 the cells are re-stimulated with fresh APC and the same concentrations of peptide. After 14 to 21 days, CD4^+ cells are isolated from these cultures by magnetic bead isolation. These CD4^+ cells are co-cultured with CD11c^+ (dendritic) cells isolated by magnetic bead isolation from spleens of mice s.c. injected with peptide 2 hours before. Control mice receive a s.c. injection of PBS. After 48 hours, supernatant is collected and cytokine response (IFN-γ) is measured. […]
FIG. 17: In vivo presentation of HIP-9FL nested peptides in DR2 mice. […] After 48 hours, supernatant was collected and IFN-γ production was measured by ELISA. […]
DR3tg or DR2tg mice were injected with 100 μg of peptide in 100 μl PBS subcutaneously (s.c.) in the flank. […] After 48 hours, supernatant of these co-cultures was collected and CD4^+ T cell activation was analysed by IFN-γ ELISA (R&D Systems, Abingdon, UK). In a parallel experiment, CD4^+ T cell responses towards peptide added in vitro were assessed to make sure the T cells recognize the peptides presented by the CD11c^+ cells.

Substance: KKKAFVEQVANVVLKKK-NH2 [HIP-9K1-KKK, KKKAFVEQVANVVLKKK]
- behaves as apitope (response to peptide presented by fresh or fixed APC) [1]: behave as apitopes
- picked up and presented by MHC II on dendritic cells to peptide-specific T cells (IFN-γ production) [2]: presented by DC to T cells
